Measurements taken from patent US20230181580A1, “TREATMENT OF PROLIFERATIVE DISEASES OF THE CNS” (AUCENTRA THERAPEUTICS PTY LTD, priority 2020, published 2023).

Columns and labels:
[1] = tested on: GBM cell lines (U87, U251, T98G); test: In vitro tumorigenicity (colony formation) assay; type: cell-based; conditions: 10 days, crystal violet staining, FIG. 3B
Description: All three GBM cell lines used in this example, namely U87, U251 and T98G, were cultured in Eagle's Minimum Essential Medium (EMEM) with 10% fetal bovine serum in 75 cm^2 flasks at 37° C. and 5% CO2. All cell lines were confirmed to be mycoplasma-free prior to any experiment setup.
A density of 200 to 400 cells/well was seeded in a twelve-well plate and incubated for overnight prior to compound treatment. […] After 10 days, cells were washed with PBS, fixed and stained with crystal violet staining solution (0.05% crystal violet, 1% formaldehyde, 1% PBS, 1% ethanol); the results are shown in FIG. 3B.

MV4-11 = test: Resazurin proliferation assay, leukaemia cell line; type: cell-based; conditions: Homo sapiens, 72 h, read-out: Antiproliferative activity GI50 MV4-11
Source text: (§1) Representative compounds from Example 1, were subjected to standard MTT (3-(4,5-dimethylthiazol-2-yl)-2,5-diphenyltetrazolium bromide) and resazurin assays on solid tumour cell lines (including GBM cell lines) and leukemia cell lines, respectively, as previously reported (Wang S et al., J Med Chem 47:1662-1675, 2004; and Diab S. et al. CheMedChem 9:962-972, 2014).

PANC1 = test: MTT proliferation assay, pancreas; type: cell-based; conditions: Homo sapiens, PANC-1, 72 h, read-out: Antiproliferative activity GI50 PANC1
Source text: as §1

[2] = tested on: phosphorylated Rb proteins (pRb Ser780, pRbSer795, pRb807/811); test: Western blot analysis of Rb phosphorylation; type: cell-based; conditions: 24 h treatment, FIG. 3A
Description: Cells were seeded at a density of 3×10^5 with 10 mL fresh medium on a sterile culture dish and incubated at 37° C. 5% CO2 for overnight prior to compound treatment. After 24 h, cells were harvested with PBS, centrifuged at 300×g for 5 mins, and lysed with 100 μL lysis buffer (25 mM 4-(2-hydroxyethyl)-1-piperazineethanesulphonic acid, 300 mM sodium chloride, 1.5 mM magnesium chloride, 0.5% sodium deoxycholate, 20 mM p-glycerophosphate, 1% Triton X-100, 0.1% sodium dodecyl sulphate, 0.2 mM EDTA, 0.5 mM dithiothreitol, 1 mM sodium orthovanadate and 25× protease inhibitor cocktail). Protein lysate was collected after 10 mins of maximum speed centrifugation at 4° C. The protein concentration of cell lysates was determined through performing a BSA standard curve using the Bio-Rad DC protein assay kit II (Bio-Rad, Sydney, NSW, Australia) according to the manufacturer's protocol. 30 μg protein was measured, mixed with 3× loading buffer and denatured at 95° C. for 5 mins using T100 thermal cycler (Bio-Rad). Molecular mass of each sample was then separated by gel electrophoresis on a 4-20% polyacrylamide gel at 120V for 1 h. The resolved proteins were transferred onto nitrocellulose membranes and blocked with 5% skimmed milk in Tris-buffered saline and Tween 20 (TBST) for 1 h at room temperature. […] Band intensity was determined using a ChemiDoc™ multiplexing imaging system (Bio-Rad). […]

CDK9/T1 = CDK9/T1 (Homo sapiens, UniProt P50750); test: CDK kinase inhibition assay (radiometric / ADP Glo); type: biochemical
CDK9/T1, sequence (P50750 whole entry): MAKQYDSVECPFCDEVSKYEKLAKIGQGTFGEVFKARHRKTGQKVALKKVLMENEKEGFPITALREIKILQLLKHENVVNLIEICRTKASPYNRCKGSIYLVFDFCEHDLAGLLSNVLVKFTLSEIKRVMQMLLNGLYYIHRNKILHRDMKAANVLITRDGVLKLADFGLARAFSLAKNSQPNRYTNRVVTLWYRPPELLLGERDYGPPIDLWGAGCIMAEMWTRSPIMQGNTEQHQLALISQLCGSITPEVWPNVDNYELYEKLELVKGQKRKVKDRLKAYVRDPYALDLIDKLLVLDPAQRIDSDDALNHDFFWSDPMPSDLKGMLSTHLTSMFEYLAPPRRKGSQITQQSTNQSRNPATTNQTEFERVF
CDK9/T1, sequence (O60563 whole entry partner): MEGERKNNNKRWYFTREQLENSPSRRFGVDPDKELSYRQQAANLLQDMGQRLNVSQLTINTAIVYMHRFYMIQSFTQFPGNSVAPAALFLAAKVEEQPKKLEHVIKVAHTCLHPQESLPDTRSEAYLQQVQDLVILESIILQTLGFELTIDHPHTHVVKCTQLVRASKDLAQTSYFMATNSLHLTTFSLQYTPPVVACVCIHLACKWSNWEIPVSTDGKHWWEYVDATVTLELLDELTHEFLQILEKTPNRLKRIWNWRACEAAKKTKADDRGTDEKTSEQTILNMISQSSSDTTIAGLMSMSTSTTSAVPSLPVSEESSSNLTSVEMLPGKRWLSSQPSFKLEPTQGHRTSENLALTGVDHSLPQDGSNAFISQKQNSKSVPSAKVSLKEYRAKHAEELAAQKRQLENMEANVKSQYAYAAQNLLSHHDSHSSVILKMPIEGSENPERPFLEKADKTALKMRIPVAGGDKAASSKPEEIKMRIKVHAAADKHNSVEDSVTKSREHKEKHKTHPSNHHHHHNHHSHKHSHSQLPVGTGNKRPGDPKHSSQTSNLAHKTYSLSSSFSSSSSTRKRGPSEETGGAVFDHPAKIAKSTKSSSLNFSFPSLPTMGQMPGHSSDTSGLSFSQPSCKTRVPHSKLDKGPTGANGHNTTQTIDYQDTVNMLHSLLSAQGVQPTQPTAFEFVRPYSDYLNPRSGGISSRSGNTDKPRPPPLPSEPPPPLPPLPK
Description: (§2) Eurofins Pharma Discovery or Reaction Biology Corporation Kinase Profiler services were used to measure inhibition of CDKs and other kinases by radiometric assay (RIA). Inhibition of CDK4/Cyclin D1, CDK6/Cyclin D3 and CDK9/T1 were also determined in-house using ADP Glo Kinase assays (Promega Corporation, Madison Wis., United States of America). Briefly, the kinase reaction for CDK4/Cyclin D1 and CDK6/Cyclin D3 was performed with kinase reaction buffer ([…] Tris base pH 7.5, 20 mM MgCl2, 0.4 mM DTT), 0.1 mg/ml BSA and RB-CTF substrate (retinoblastoma protein1 C-terminal fraction). For CDK9/CyclinT1, the kinase reaction was performed with standard assay buffer and Kinase Dilution Buffer and RBER-IRStide substrate. Serial dilutions of 1:3 were prepared for test compounds for 10 concentrations (from 10 μM to 0.5 nM). The kinase reactions were started by addition of ATP, incubated for 40 min at 37° C. and then stopped by adding 10 μL of ADP Glo reagent. After incubation at room temperature (RT) in the dark for 40 min, 20 μL of kinase detection reagent was added per well and incubated for 40 min. Luminescence was measured using an EnVision Multilabel plate reader (PerkinElmer, Buckinghamshire, United Kingdom). Positive and negative controls were performed in the presence and absence of CDK kinases, respectively. Half-maximal inhibition (IC50) values were calculated using a 4-parameter logistic non-linear regression model with Graphpad prism (Version 6.0). Apparent inhibition constants (Ki) values were calculated from Km (ATP) and IC50 values for the respective kinases.

CDK1/B = CDK1/B (Homo sapiens, UniProt P06493); test: as above; type: biochemical
CDK1/B, sequence (P06493 whole entry): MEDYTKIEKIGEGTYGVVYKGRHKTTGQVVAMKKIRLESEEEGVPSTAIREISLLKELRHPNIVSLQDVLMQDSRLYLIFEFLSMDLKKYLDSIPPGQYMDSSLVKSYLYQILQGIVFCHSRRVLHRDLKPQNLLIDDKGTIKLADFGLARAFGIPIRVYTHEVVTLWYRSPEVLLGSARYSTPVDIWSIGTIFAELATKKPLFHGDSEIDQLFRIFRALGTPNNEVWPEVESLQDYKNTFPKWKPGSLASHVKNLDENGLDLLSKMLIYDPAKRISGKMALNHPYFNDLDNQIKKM
CDK1/B, sequence (P14635 whole entry partner): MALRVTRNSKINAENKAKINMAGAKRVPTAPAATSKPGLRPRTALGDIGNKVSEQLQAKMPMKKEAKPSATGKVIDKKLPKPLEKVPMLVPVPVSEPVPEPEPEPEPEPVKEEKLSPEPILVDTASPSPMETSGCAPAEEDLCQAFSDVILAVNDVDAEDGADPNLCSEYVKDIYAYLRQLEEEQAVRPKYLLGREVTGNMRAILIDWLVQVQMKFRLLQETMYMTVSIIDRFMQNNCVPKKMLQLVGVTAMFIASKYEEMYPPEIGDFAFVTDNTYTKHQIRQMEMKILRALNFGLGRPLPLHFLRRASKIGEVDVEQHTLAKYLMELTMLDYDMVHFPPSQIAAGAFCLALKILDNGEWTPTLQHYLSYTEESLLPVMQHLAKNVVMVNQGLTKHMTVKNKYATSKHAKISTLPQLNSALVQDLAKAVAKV
Description: as §2

CDK7/H = CDK7/H (Homo sapiens, UniProt P50613); test: as above; type: biochemical
CDK7/H, sequence (P50613 whole entry): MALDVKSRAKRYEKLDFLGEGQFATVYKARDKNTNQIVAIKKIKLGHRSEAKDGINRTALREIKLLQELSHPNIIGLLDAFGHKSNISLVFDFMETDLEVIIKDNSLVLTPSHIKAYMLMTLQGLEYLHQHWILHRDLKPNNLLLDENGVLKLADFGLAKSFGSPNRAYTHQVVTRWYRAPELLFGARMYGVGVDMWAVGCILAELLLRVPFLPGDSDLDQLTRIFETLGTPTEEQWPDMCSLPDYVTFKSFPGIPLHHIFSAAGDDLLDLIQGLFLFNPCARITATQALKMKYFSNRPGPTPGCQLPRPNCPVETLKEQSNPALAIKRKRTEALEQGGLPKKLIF
CDK7/H, sequence (P51946 whole entry partner): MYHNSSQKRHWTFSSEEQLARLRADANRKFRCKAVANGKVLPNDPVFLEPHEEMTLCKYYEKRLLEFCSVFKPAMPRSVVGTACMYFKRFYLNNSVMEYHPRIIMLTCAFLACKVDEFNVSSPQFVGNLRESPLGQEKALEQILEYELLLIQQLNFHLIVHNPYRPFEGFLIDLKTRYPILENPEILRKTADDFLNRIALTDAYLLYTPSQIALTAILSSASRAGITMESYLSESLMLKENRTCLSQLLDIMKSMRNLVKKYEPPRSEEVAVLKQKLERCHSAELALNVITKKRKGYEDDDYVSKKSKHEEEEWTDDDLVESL
CDK7/H, sequence (P51948 whole entry partner): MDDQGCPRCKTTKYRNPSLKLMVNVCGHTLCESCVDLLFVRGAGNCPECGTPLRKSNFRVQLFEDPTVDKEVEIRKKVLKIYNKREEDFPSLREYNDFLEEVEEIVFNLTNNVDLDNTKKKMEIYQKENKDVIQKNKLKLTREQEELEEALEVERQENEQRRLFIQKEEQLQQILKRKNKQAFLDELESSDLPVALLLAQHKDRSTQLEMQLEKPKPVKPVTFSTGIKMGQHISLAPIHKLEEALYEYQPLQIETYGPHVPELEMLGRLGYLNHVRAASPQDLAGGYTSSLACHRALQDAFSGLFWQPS
Description: as §2

CDK2/A = CDK2/A (Homo sapiens, UniProt P24941); test: as above; type: biochemical
Description: as §2

LNCap = test: MTT proliferation assay, prostate; type: cell-based; conditions: Homo sapiens, 72 h, read-out: Antiproliferative activity GI50 LNCap
Source text: as §1

U87 GBM cells = test: Subcutaneous U87 GBM xenograft, single agents; type: in vivo
Source text: Compound 1 and compound 2 were also investigated for in vivo antitumour activity in subcutaneous xenograft models. Briefly, U87 GBM cells were harvested and resuspended in a 1:1 mixture of serum-free media and matrigel, and 5×10^6 cells injected subcutaneously into the rear flank of 5-6-week-old CD1 nu/nu female mice. When the mean tumour volume reached 150-200 mm^3, animals were randomised to treatment groups (n=10 per group) and treated orally with vehicle (0.5% carboxymethyl cellulose in water), compound 1 or compound 2 daily for 21 days with the doses shown in FIGS. 5A and 5B. Mice were observed daily for signs of toxicity and weight loss, and tumour volume measured every other day.

CNc1nc(C)c(-c2nc(Nc3ccc(N4CCC(N(C)C)CC4)cn3)ncc2F)s1 [Compound 1, 5-(2-((5-(4-(dimethylamino)piperidin-1-yl)pyridin-2-yl)amino)-5-fluoropyrimidin-4-yl)-N,4-dimethylthiazol-2-amine]
growth and proliferation (colony formation) [1]: inhibits the growth and proliferation of all three GBM cell lines | GI50 (MV4-11): 110 nM | GI50 (PANC1): 1320 nM | level of phosphorylated Rb proteins [2]: reduces the level of phosphorylated Rb proteins | Ki (CDK9/T1): > 1000 nM | Ki (CDK1/B): > 1000 nM | Ki (CDK7/H): > 1000 nM | Ki (CDK2/A): > 1000 nM | GI50 (LNCap): 620 nM | T/C (U87 GBM cells; day 21, oral daily for 21 days, vs vehicle, p<0.001): 310% | tumour growth compared to vehicle treatment (U87 GBM cells; oral daily for 21 days): markedly reduced tumour growth | toxicity (U87 GBM cells; oral daily for 21 days, observed daily for signs of toxicity and weight loss): without any overt toxicity
